Laboratory results from patent US9771369B2, “Compounds and methods for kinase modulation, and indications therefor” (Plexxikon Inc., priority 2014, dated 2017).

molecular target: c-Kit kinase (Homo sapiens (Human), UniProt P10721); experiment: c-Kit biochemical assay (AlphaScreen kinase activity)
Procedure, shortened: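 AlphaScreen: c-Kit phosphorylates biotin-(E4Y)3 (100 nM) at 10 μM ATP, pH 7.2 HEPES buffer with Mg/Mn, 5% DMSO, 1 h room temperature; streptavidin donor and PY30 acceptor beads detect product. Second format: 100 μM ATP, 30 nM biotin-(E4Y)10, pH 7.5. IC50 from 8-point 1:3 dilution curves.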

Sequence of c-Kit kinase (P10721 26-976): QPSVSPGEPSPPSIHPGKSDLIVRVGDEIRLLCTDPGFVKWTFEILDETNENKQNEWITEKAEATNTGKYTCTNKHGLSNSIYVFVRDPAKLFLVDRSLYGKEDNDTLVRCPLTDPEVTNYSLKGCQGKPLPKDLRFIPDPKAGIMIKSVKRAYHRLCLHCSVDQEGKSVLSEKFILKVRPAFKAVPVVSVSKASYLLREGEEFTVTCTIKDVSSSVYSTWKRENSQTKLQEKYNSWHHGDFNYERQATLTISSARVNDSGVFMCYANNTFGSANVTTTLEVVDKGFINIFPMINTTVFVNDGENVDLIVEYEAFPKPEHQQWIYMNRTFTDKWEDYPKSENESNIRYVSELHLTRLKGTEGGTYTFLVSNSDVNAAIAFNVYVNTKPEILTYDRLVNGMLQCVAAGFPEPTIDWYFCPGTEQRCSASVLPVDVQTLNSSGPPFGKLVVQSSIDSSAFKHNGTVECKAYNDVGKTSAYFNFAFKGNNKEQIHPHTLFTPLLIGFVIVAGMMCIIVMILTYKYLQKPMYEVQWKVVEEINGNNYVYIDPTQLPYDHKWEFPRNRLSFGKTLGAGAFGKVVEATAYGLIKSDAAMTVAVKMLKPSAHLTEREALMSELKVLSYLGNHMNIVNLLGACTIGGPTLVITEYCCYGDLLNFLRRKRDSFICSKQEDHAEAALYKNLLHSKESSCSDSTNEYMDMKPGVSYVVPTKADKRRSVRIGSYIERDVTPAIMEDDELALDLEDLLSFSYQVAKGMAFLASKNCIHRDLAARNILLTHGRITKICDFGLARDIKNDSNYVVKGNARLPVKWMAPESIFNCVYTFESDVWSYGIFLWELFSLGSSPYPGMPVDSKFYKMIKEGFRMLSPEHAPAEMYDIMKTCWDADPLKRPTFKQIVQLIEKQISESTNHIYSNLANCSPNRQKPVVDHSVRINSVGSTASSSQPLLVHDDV

CCOc1ccc(-c2[nH]c(C3CCN(c4ncnc5[nH]c(-c6cnn(C(F)F)c6)cc45)CC3)nc2C)cc1C [P-3139, 6-[1-(difluoromethyl)pyrazol-4-yl]-4-[4-[5-(4-ethoxy-3-methyl-phenyl)-4-methyl-1H-imidazol-2-yl]-1-piperidyl]-7H-pyrrolo[2,3-d]pyrimidine] and COc1ccc(-c2[nH]c(C3(C)CCN(c4ncnc5[nH]c(-c6cnn(C(F)F)c6)cc45)CC3)nc2C)cc1C [P-3154, 6-[1-(difluoromethyl)pyrazol-4-yl]-4-[4-[5-(4-methoxy-3-methyl-phenyl)-4-methyl-1H-imidazol-2-yl]-4-methyl-1-piperidyl]-7H-pyrrolo[2,3-d]pyrimidine] fall in the same range of IC50: 0.0001 to 1 µM for the first, 0.0001 to 1 µM for the second.

CCC1(c2nc(C)c(-c3ccc(OC)cc3)[nH]2)CCN(c2ncnc3[nH]c(C)cc23)CC1 [P-3140, 4-[4-ethyl-4-[5-(4-methoxyphenyl)-4-methyl-1H-imidazol-2-yl]-1-piperidyl]-6-methyl-7H-pyrrolo[2,3-d]pyrimidine] and CCOc1ccc(-c2[nH]c(C3(CC)CCN(c4ncnc5[nH]c(C)cc45)CC3)nc2C)cc1 [P-3145, 4-[4-[5-(4-ethoxyphenyl)-4-methyl-1H-imidazol-2-yl]-4-ethyl-1-piperidyl]-6-methyl-7H-pyrrolo[2,3-d]pyrimidine] fall in the same range of IC50: 1 to 10 µM for the first, 1 to 10 µM for the second.

CCC1(c2nc(C)c(-c3ccc(OC)c(C)c3)[nH]2)CCN(c2ncnc3[nH]c(C)cc23)CC1 [P-3141, 4-[4-ethyl-4-[5-(4-methoxy-3-methyl-phenyl)-4-methyl-1H-imidazol-2-yl]-1-piperidyl]-6-methyl-7H-pyrrolo[2,3-d]pyrimidine] and CCOc1ccc(-c2[nH]c(C3(CC)CCN(c4ncnc5[nH]c(C)cc45)CC3)nc2C)cc1C [P-3142, 4-[4-[5-(4-ethoxy-3-methyl-phenyl)-4-methyl-1H-imidazol-2-yl]-4-ethyl-1-piperidyl]-6-methyl-7H-pyrrolo[2,3-d]pyrimidine] fall in the same range of IC50: 1 to 10 µM for the first, 1 to 10 µM for the second.

CCC1(c2nc(C)c(-c3ccc4c(c3)OCO4)[nH]2)CCN(c2ncnc3[nH]c(C)cc23)CC1 [P-3143, 4-[4-[5-(1,3-benzodioxol-5-yl)-4-methyl-1H-imidazol-2-yl]-4-ethyl-1-piperidyl]-6-methyl-7H-pyrrolo[2,3-d]pyrimidine] and CCC1(c2nc(C)c(-c3ccc4c(c3)OCCO4)[nH]2)CCN(c2ncnc3[nH]c(C)cc23)CC1 [P-3144, 4-[4-[5-(2,3-dihydro-1,4-benzodioxin-6-yl)-4-methyl-1H-imidazol-2-yl]-4-ethyl-1-piperidyl]-6-methyl-7H-pyrrolo[2,3-d]pyrimidine] fall in the same range of IC50: 1 to 10 µM for the first, 1 to 10 µM for the second.

First: COc1ccc(-c2[nH]c(C3CCN(c4ncnc5[nH]c(-c6ccnc(OC)c6)cc45)CC3)nc2C(F)(F)F)cc1 [P-3146, 4-[4-[5-(4-methoxyphenyl)-4-(trifluoromethyl)-1H-imidazol-2-yl]-1-piperidyl]-6-(2-methoxy-4-pyridyl)-7H-pyrrolo[2,3-d]pyrimidine]
Second: COc1cc(-c2cc3c(N4CCC(c5nc(C)c(-c6ccc(C(F)(F)F)cc6)[nH]5)CC4)ncnc3[nH]2)ccn1 [P-3149, 6-(2-methoxy-4-pyridyl)-4-[4-[4-methyl-5-[4-(trifluoromethyl)phenyl]-1H-imidazol-2-yl]-1-piperidyl]-7H-pyrrolo[2,3-d]pyrimidine]
The IC50 of the first is lower: 0.0001 to 1 µM for the first, 1 to 10 µM for the second. The first is the more potent here.

First: COc1ccc(-c2[nH]c(C3CCN(c4ncnc5[nH]c(-c6ccc(C#N)cc6)cc45)CC3)nc2C(F)(F)F)cc1 [P-3148, 4-[4-[4-[5-(4-methoxyphenyl)-4-(trifluoromethyl)-1H-imidazol-2-yl]-1-piperidyl]-7H-pyrrolo[2,3-d]pyrimidin-6-yl]benzonitrile]
Second: Cc1nc(C2CCN(c3ncnc4[nH]c(-c5ccc(C#N)cc5)cc34)CC2)[nH]c1-c1ccc(C(F)F)cc1 [P-3162, 4-[4-[4-[5-[4-(difluoromethyl)phenyl]-4-methyl-1H-imidazol-2-yl]-1-piperidyl]-7H-pyrrolo[2,3-d]pyrimidin-6-yl]benzonitrile]
The IC50 of the first is lower: 0.0001 to 1 µM for the first, 1 to 10 µM for the second.

Cc1cc2c(N3CCC(C)(c4nc(C)c(-c5ccc6c(c5)OCO6)[nH]4)CC3)ncnc2[nH]1 [P-3150, 4-[4-[5-(1,3-benzodioxol-5-yl)-4-methyl-1H-imidazol-2-yl]-4-methyl-1-piperidyl]-6-methyl-7H-pyrrolo[2,3-d]pyrimidine] and Cc1cc2c(N3CCC(C)(c4nc(C)c(-c5ccc6c(c5)OCCO6)[nH]4)CC3)ncnc2[nH]1 [P-3151, 4-[4-[5-(2,3-dihydro-1,4-benzodioxin-6-yl)-4-methyl-1H-imidazol-2-yl]-4-methyl-1-piperidyl]-6-methyl-7H-pyrrolo[2,3-d]pyrimidine] fall in the same range of IC50: 1 to 10 µM for the first, 1 to 10 µM for the second.

Cc1cc2c(N3CCC(C)(c4nc(C)c(-c5ccc6c(c5)OC(F)(F)O6)[nH]4)CC3)ncnc2[nH]1 [P-3152, 4-[4-[5-(2,2-difluoro-1,3-benzodioxol-5-yl)-4-methyl-1H-imidazol-2-yl]-4-methyl-1-piperidyl]-6-methyl-7H-pyrrolo[2,3-d]pyrimidine] and COc1cccc(-c2[nH]c(C3(C)CCN(c4ncnc5[nH]c(C)cc45)CC3)nc2C)c1 [P-3166, 4-[4-[5-(3-methoxyphenyl)-4-methyl-1H-imidazol-2-yl]-4-methyl-1-piperidyl]-6-methyl-7H-pyrrolo[2,3-d]pyrimidine] fall in the same range of IC50: 1 to 10 µM for the first, 1 to 10 µM for the second.

COc1ccc(-c2[nH]c(C3(C)CCN(c4ncnc5[nH]c(-c6cnn(C(F)F)c6)cc45)CC3)nc2C)cc1 [P-3153, 6-[1-(difluoromethyl)pyrazol-4-yl]-4-[4-[5-(4-methoxyphenyl)-4-methyl-1H-imidazol-2-yl]-4-methyl-1-piperidyl]-7H-pyrrolo[2,3-d]pyrimidine] and COc1cccc(-c2[nH]c(C3(C)CCN(c4ncnc5[nH]c(-c6cnn(C(F)F)c6)cc45)CC3)nc2C)c1 [P-3168, 6-[1-(difluoromethyl)pyrazol-4-yl]-4-[4-[5-(3-methoxyphenyl)-4-methyl-1H-imidazol-2-yl]-4-methyl-1-piperidyl]-7H-pyrrolo[2,3-d]pyrimidine] fall in the same range of IC50: 0.0001 to 1 µM for the first, 0.0001 to 1 µM for the second.

Cc1nc(C2(C)CCN(c3ncnc4[nH]c(-c5cnn(C(F)F)c5)cc34)CC2)[nH]c1-c1ccc2c(c1)OCO2 [P-3155, 4-[4-[5-(1,3-benzodioxol-5-yl)-4-methyl-1H-imidazol-2-yl]-4-methyl-1-piperidyl]-6-[1-(difluoromethyl)pyrazol-4-yl]-7H-pyrrolo[2,3-d]pyrimidine] and COc1ccc(-c2cc3c(N4CCC(C)(c5nc(C)c(-c6ccc7c(c6)OCO7)[nH]5)CC4)ncnc3[nH]2)cn1 [P-3158, 4-[4-[5-(1,3-benzodioxol-5-yl)-4-methyl-1H-imidazol-2-yl]-4-methyl-1-piperidyl]-6-(6-methoxy-3-pyridyl)-7H-pyrrolo[2,3-d]pyrimidine] fall in the same range of IC50: 0.0001 to 1 µM for the first, 0.0001 to 1 µM for the second.

COc1ccc(-c2[nH]c(C3(C)CCN(c4ncnc5[nH]c(-c6ccc(OC)nc6)cc45)CC3)nc2C)cc1 [P-3156, 4-[4-[5-(4-methoxyphenyl)-4-methyl-1H-imidazol-2-yl]-4-methyl-1-piperidyl]-6-(6-methoxy-3-pyridyl)-7H-pyrrolo[2,3-d]pyrimidine] and COc1cccc(-c2[nH]c(C3(C)CCN(c4ncnc5[nH]c(-c6ccc(OC)nc6)cc45)CC3)nc2C)c1 [P-3169, 4-[4-[5-(3-methoxyphenyl)-4-methyl-1H-imidazol-2-yl]-4-methyl-1-piperidyl]-6-(6-methoxy-3-pyridyl)-7H-pyrrolo[2,3-d]pyrimidine] fall in the same range of IC50: 0.0001 to 1 µM for the first, 0.0001 to 1 µM for the second.

COc1ccc(-c2cc3c(N4CCC(C)(c5nc(C)c(-c6ccc(OC)c(C)c6)[nH]5)CC4)ncnc3[nH]2)cn1 [P-3157, 4-[4-[5-(4-methoxy-3-methyl-phenyl)-4-methyl-1H-imidazol-2-yl]-4-methyl-1-piperidyl]-6-(6-methoxy-3-pyridyl)-7H-pyrrolo[2,3-d]pyrimidine] and CCOc1ccc(-c2[nH]c(C3(C)CCN(c4ncnc5[nH]c(-c6ccc(C#N)cc6)cc45)CC3)nc2C)cc1C [P-3160, 4-[4-[4-[5-(4-ethoxy-3-methyl-phenyl)-4-methyl-1H-imidazol-2-yl]-4-methyl-1-piperidyl]-7H-pyrrolo[2,3-d]pyrimidin-6-yl]benzonitrile] fall in the same range of IC50: 0.0001 to 1 µM for the first, 0.0001 to 1 µM for the second.

Cc1nc(C2(C)CCN(c3ncnc4[nH]c(-c5ccc(C#N)cc5)cc34)CC2)[nH]c1-c1ccc2c(c1)OCO2 [P-3159, 4-[4-[4-[5-(1,3-benzodioxol-5-yl)-4-methyl-1H-imidazol-2-yl]-4-methyl-1-piperidyl]-7H-pyrrolo[2,3-d]pyrimidin-6-yl]benzonitrile] and COc1ccc(-c2[nH]c(C3(C)CCN(c4ncnc5[nH]c(-c6ccc(C#N)cc6)cc45)CC3)nc2C)cc1F [P-3163, 4-[4-[4-[5-(3-fluoro-4-methoxy-phenyl)-4-methyl-1H-imidazol-2-yl]-4-methyl-1-piperidyl]-7H-pyrrolo[2,3-d]pyrimidin-6-yl]benzonitrile] fall in the same range of IC50: 0.0001 to 1 µM for the first, 0.0001 to 1 µM for the second.

CCOc1ccc(-c2[nH]c(C3(C)CCN(c4ncnc5[nH]c(-c6ccc(C#N)cc6)cc45)CC3)nc2C)cc1 [P-3161, 4-[4-[4-[5-(4-ethoxyphenyl)-4-methyl-1H-imidazol-2-yl]-4-methyl-1-piperidyl]-7H-pyrrolo[2,3-d]pyrimidin-6-yl]benzonitrile] and Cc1nc(C2(C)CCN(c3ncnc4[nH]c(-c5ccc(C#N)cc5)cc34)CC2)[nH]c1-c1ccc(C(F)F)cc1 [P-3164, 4-[4-[4-[5-[4-(difluoromethyl)phenyl]-4-methyl-1H-imidazol-2-yl]-4-methyl-1-piperidyl]-7H-pyrrolo[2,3-d]pyrimidin-6-yl]benzonitrile] fall in the same range of IC50: 0.0001 to 1 µM for the first, 0.0001 to 1 µM for the second.

Compared with Cc1cc2c(N3CCC(C)(c4nc(C)c(-c5ccc(C(F)(F)F)cc5)[nH]4)CC3)ncnc2[nH]1 [P-3165, 6-methyl-4-[4-methyl-4-[4-methyl-5-[4-(trifluoromethyl)phenyl]-1H-imidazol-2-yl]-1-piperidyl]-7H-pyrrolo[2,3-d]pyrimidine], COc1cccc(-c2[nH]c(C3(C)CCN(c4ncnc5[nH]c(-c6ccc(C#N)cc6)cc45)CC3)nc2C)c1 [P-3167, 4-[4-[4-[5-(3-methoxyphenyl)-4-methyl-1H-imidazol-2-yl]-4-methyl-1-piperidyl]-7H-pyrrolo[2,3-d]pyrimidin-6-yl]benzonitrile] is lower in IC50: 1 to 10 µM for the first, 0.0001 to 1 µM for the second. The second is the more potent here.
